Where two headings read alike, the source gives them in different places. Values belong to the molecule of their own block, whether it stands above or below them.
Assays:
[1] = system: truncated and full-length C7 in RDEB_L1, RDEB_L5 and HEK293^R578X cells; test: Western blot detection of truncated and full-length C7; assay type: cell-based, human
Experimental: For western blot, RDEB or normal human keratinocytes were lysed in protein extraction buffer (50 mM Tris–HCl [pH 7.5], 100 mM NaCl, 1% Nonidet P-40, and 4 mM EDTA) containing proteinase inhibitors cocktail (Complete Mini, EDTA free; Roche Diagnostics, Mannheim, Germany). Lysates were incubated for 30 min on ice and centrifuged at 15,000 g for 30 min at 4 °C. Supernatants were then collected and concentrated by ultrafiltration using Amicon Ultra columns (10 kDa; Millipore, Ireland). Protein concentrations were measured using the Bradford assay (Bio-Rad, Hercules, CA). For each sample, […] total protein was resolved on NuPAGE Novex 3%–8% Tris–Acetate gel electrophoresis (Invitrogen, Carlsbad, CA) and electrotransferred to nitrocellulose membranes (Invitrogen, Carlsbad, CA). For type VII collagen analysis, blots were probed with a monospecific polyclonal anti-C7 antibody (a generous gift from Dr. A. Nystrom, University of Freiburg). Invitrogen anti-MDH1 polyclonal antibody (PA550446, 1:1000) was used to detect MDH1. Standard antibodies against a reference protein were used as a loading control, as indicated. Visualization of the resulting signal was performed by incubating with horseradish peroxidase (HRP)- conjugated anti-rabbit antibody (Amersham, Burlington, MA) and West Pico Chemiluminescent Substrate (Pierce, Rockford, IL).

[2] = system: total (truncated + full length) C7 in RDEB_L5 cells; test: AlphaLISA quantification of total C7 in RDEB_L5 cells; assay type: cell-based, human; details: for Increase in C7 levels Emax, % vs baseline: 20 ng/mL TGFß2; for EC50: total C7 AlphaLISA, 48 h, 20 ng/mL TGFß2, relative EC50, mean ± SD, read-out: Increase in C7 levels EC50
Experimental: (§1) The AlphaLISA assay was developed in-house by using the biotin-conjugated rabbit polyclonal antibody anti-C7 (LSBio LS-298147) and conjugating the acceptor beads (PerkinElmer 6772001) to a monoclonal anti-Collagen type VII antibody produced in mouse, clone LH7.2 (Thermo MA5-13,432). Formulation of the mAb clone LH7.2 was exchanged to PBS and concentrated 5 × by using Amicon® Ultra-0.5 centrifugal filters up to 1 mg/ml. The conjugation procedure was carried out according to the protocol provided by PerkinElmer.
(§2) For compound treatment in RDEB patient-derived transformed keratinocytes, 5,000 cells were plated in 20 µL of supplemented KGM media containing 20 ng/mL TGFβ2 (SIGMA GF113) without GA-1000 in 384-well cell culture plates (Greiner 781098). The day after, 5 µL of test compounds prepared 5 × in supplemented KGM without GA-1000 were added over cells and incubated for 48 h at 37 °C and 5% CO2. For compound treatment in HEK293^R578X, 10,000 cells were plated in 20 μL of DMEM (High Glucose, 2 mM L-Glutamine, sodium pyruvate, and FBS 10%) in 384-well cell culture plates (Greiner 781,098,). The day after, 5 μL of test compounds prepared 5 × in DMEM complete medium were added over cells and incubated for 48 h at 37 °C and 5% CO2.
(§3) After the treatment process, 2.5 µL of RIPA buffer 10 x (Abcam ab156034) were added over the […] of cells for 20 min at room temperature to obtain a complete cell lysis. Then, 2 μL of sample (i.e., cell lysate with supernatant) were transferred to the AlphaLISA plate (PerkinElmer 6,059,340) containing […] of antibodies mixture ([…] of acceptor Beads-Ab and […] of biotin-rAb) prepared in AlphaLISA buffer 1 x (PerkinElmer AL00F). The reaction was incubated for 90 min at room temperature. Finally, 10 μL of […] of donor beads (PerkinElmer 6760002,) were added to the reaction under subdued light, mixed gently, and incubated for 3 h at room temperature. AlphaLISA signal was detected with an Envision microplate reader (Perkin Elmer) using the following setting: Filter: AlphaScreen, Excitation time: 180 ms, Integration time: 300 ms.
(§4) Statistical analyses were performed using GraphPad Prism v. 7.04 (La Jolla, California). Results are shown as mean ± SD of experimental replicates. Dose–response curves to assess compound treatment effect were plotted in a four-parameter logistic model. Relative EC50, representing the total drug concentration producing a 50% effect, was calculated in the four-parameter logistic equation. Comparisons of collagen protein and mRNA expression in different experimental conditions were made using ANOVA, followed by a post hoc test. statistical significance was considered with p values < 0.05.

[3] = system: total (truncated + full length) C7 in RDEB_L1 cells; test: AlphaLISA quantification of total C7 in RDEB_L1 cells; assay type: cell-based, human
Experimental: as §1, §2, §3, §4

[4] = system: total C7 in HEK293^R578X cells; test: AlphaLISA quantification of total C7 in recombinant HEK293^R578X cells; assay type: cell-based, human; details: for EC50: total C7 AlphaLISA, 48 h, relative EC50, mean ± SD, read-out: Increase in C7 levels EC50
Experimental: as §1, §2, §3, §4

NHK cells = test: Cytotoxicity, ATP levels, normal human keratinocytes (NHK); assay type: cell-based; details: NHK cells, ATP levels
Experimental: (§5) The viability of RDEB patient-derived cell lines or NHK was evaluated by measuring the ATP levels as an indirect readout of the potential cytotoxicity effect of compounds. Cells were plated and treated exactly with the same conditions as those followed in the AlphaLISA assay, described above. To measure ATP levels, cells were processed using the ATPlite™ 1step luminescence-based assay (PerkinElmer 6,016,731), following the manufacturer’s protocol. 25 μL of ATPlite™ reagent was added directly over cells and plates were covered with a sealing film and shaken for 25 min using a microtiter plate shaker. Luminescence was measured in a Luminoskan Ascent luminometer (Thermo Fisher Scientific). 10 μM of Staurosporine was used as a reference compound and control for the total cytotoxicity.

RDEB_L1 cells = test: RNAseq (HTPathwaySeq) transcriptomic profiling, GSEA; assay type: cell-based, human; details: 24 h, 20 ng/mL TGFβ2, compound 7 and 8 at the highest concentrations tested of 100 and 300 µM
Experimental: The […]®) analysis was conducted at […], Belgium) using samples provided by Almirall. A total of 376 cell lysate samples representing 4 biological replicates of 94 samples were provided to […] in four 96-well plates. On each 96-well plate, two empty wells were allocated to include […] reference samples. Samples from the same biological group were distributed over the different plates to not confound inter-plate variability with biological signal. […] The compounds were evaluated in RDEB_L1 cells in the presence of 20 ng/mL TGFβ2 to mimic RDEB physiology and in normal human keratinocytes with no TGFβ2 treatment. Cells were treated during 24 h. Controls for RDEB_L1 cells not treated with TGFβ2 and RDEB_L1 and NHK cells treated with DMSO in the absence of compounds were also included. The conditions of the assay were identical to those described for the Real-time quantitative RT-PCR (see above). For the […], over 460 M reads were generated for 376 samples of interest, resulting in about 1.22 M reads per sample on average. […] is based on a 3'-end library preparation method, and gene body read coverage is concentrated towards the 3'-end of the genes. For quality control, a selection of lysate samples was checked for gDNA contamination and RNA content using qPCR before library preparation. RNA samples were processed to generate RNA-sequencing libraries using […] procedure based on the QuantSeq (Lexogen) 3'-end library preparation workflow. The quality of a selection of samples was assessed with the 2100 Bioanalyzer instrument (Agilent). Libraries were quantified using qPCR and pooled for single-end sequencing on a NextSeq 500 (Illumina) according to […] standard operating procedure. Raw reads were mapped to the human genome (hg38) and gene expression was quantified based on the Ensembl transcriptome annotation (version 85) using […]. Raw counts were normalized using […]2 prior to differential gene expression analysis. For each cell line, samples were clustered based on log-transformed normalized counts using tSNE. A perplexity parameter of 35 and a maximum number of 1000 iterations were applied. Genes with more than 10 normalized counts in at least 3 samples were used as input. Analysis was run in R (v3.2) with a fixed seed. […] For each contrast, genes ranked by fold change were used as input. PCA was applied on the fold changes of each compound vs their associated vehicle using the 500 genes with the greatest variance. Arrows connect the different incremental dosages used on each compound to observe their differentiation patterns. Pathway enrichment and PCA were performed using R v.3.2. Pathway enrichment was analyzed with cluster profile package. The procedure followed for the cell treatments of RDEB-L1 and NHEK, was the same as that used in the RT-qPCR study. Cell lysis and sample preparation were conducted according to […] instructions: Plates of treated cells were centrifuged for 5 min at 600 g at 4 °C, and the medium was carefully removed to avoid disturbing the cells. Then, cells were washed in PBS, centrifuged and the PBS was removed again. […] After checking that cells were lysed, the samples were transferred to 96-well PCR plates, and then sealed and stored at -80 °C to be sent to […].

[5] = Cytotoxicity, ATP levels, normal human keratinocytes (NHK); assay type: cell-based; details: human, normal human keratinocytes (NHK); NHK cells, ATP levels; read-out: Cytotox. IC50
Experimental: as §5

[6] = RDEB_L1 and HEK293^R578X cells, 50 μM compound 7, 50 μM chuangxinmycin, 100 μM 3-methyl-chuangxinmycin
[7] = Homo sapiens, RDEB_L1 cells, total C7 AlphaLISA, 48 h, 20 ng/mL TGFß2, mean ± SD, read-out: Increase in C7 levels EC50(rel)
[8] = RDEB_L1 cells, at 100 µM, 20 ng/mL TGFß2

SMILES: CN[C@@H]1[C@@H](O)[C@@H](O[C@@H]2[C@@H](O)[C@H](O[C@H]3O[C@H]([C@@H](C)O)[C@@H](O)[C@H](O)[C@H]3N)[C@@H](N)C[C@H]2N)OC[C@]1(C)O [Compound G418, G418, reference compound]
C7 products induced, western blot ([1]; RDEB_L1, RDEB_L5 and HEK293^R578X cells): detectable upregulation of full length and truncated C7
Increase in C7 levels Emax, % vs baseline ([2]; at 25 µM): 35.5 at 25 % vs baseline
EC50 [2]: 12 µM
Increase in C7 levels Emax, % vs baseline ([3]; RDEB_L1 cells, at 20 µM, 20 ng/mL TGFß2): 124 ± 76 at 20 % vs baseline
EC50 ([3]; RDEB_L1 cells, read-out: EC50 in the AlphaLISA assay): 4.9 µM
EC50 ([3]; in RDEB_L1 and RDEB_L5 cells, read-out: EC50 (range over two cell lines)): 4.9 to 12 µM
Increase in C7 levels Emax, % vs baseline ([4]; at 40 µM): 71 ± 6 at 40 % vs baseline
EC50 [4]: 16 ± 0.09 µM
Cytotox. % inhibition of viability (NHK cells; at 40 µM): 30.8% ± 3.4 at 40 (n=4)

EC50 [3, 7]: 42 µM
SMILES: CC1(C)c2c[nH]c3cccc(c23)S[C@H]1C(=O)O [3-methyl chuangxinmycin, 3-methyl-chuangxinmycin]
modulation of GO terms related to NMD, readthrough, translation and unfolded protein response (RDEB_L1 cells): Neither compound 1 nor chuangxinmycin nor 3-methyl-chuangxinmycin showed any impact on these pathways
C7 products induced, western blot [1, 6]: partially upregulated full-length C7
Increase in C7 levels Emax, % vs baseline [3, 8]: 105 ± 13 at 100 % vs baseline
EC50 ([4]; Homo sapiens): 4.6 µM
Increase in C7 levels Emax, % vs baseline ([4]; at 100 µM): 58 at 100 % vs baseline

SMILES: C[C@H]1c2c[nH]c3cccc(c23)S[C@H]1C(=O)O [Chuangxinmycin, chuangxinmycin]
modulation of GO terms related to NMD, readthrough, translation and unfolded protein response (RDEB_L1 cells): Neither compound 1 nor chuangxinmycin nor 3-methyl-chuangxinmycin showed any impact on these pathways
C7 products induced, western blot [1, 6]: partially upregulated full-length C7
Increase in C7 levels Emax, % vs baseline ([3]; RDEB_L1 cells, at 50 µM, 20 ng/mL TGFß2): 22 ± 3 at 50 % vs baseline

EC50 ([2]; Homo sapiens): 3.1 ± 0.008 µM
EC50 [3, 7]: 1.9 ± 0.12 µM
SMILES: Nc1ncc(-c2ccc3cnn(CCO)c3c2)nc1C(=O)NC1C2CC3CC1CC(O)(C3)C2 (stereo not shown) [Compound 3]
Increase in C7 levels Emax, % vs baseline ([2]; at 1.25 µM): 717 ± 229 at 1.25 % vs baseline
Increase in C7 levels Emax, % vs baseline ([3]; RDEB_L1 cells, at 3.1 µM, 20 ng/mL TGFß2): 2083 ± 29 at 3.1 % vs baseline
Cytotox. % inhibition of viability (NHK cells; at 50 µM): 58% ± 13 at 50 (n=2)

EC50 [3, 7]: 40 ± 13 µM
SMILES: C#Cc1nc(-c2ccncc2)c(-c2ccco2)nc1N [Compound 8]
modulation of GO terms related to NMD, readthrough, translation and unfolded protein response (RDEB_L1 cells): modulating genes specifically related to cytoplasmic translation and the ribosome
Increase in C7 levels Emax, % vs baseline [3, 8]: 86 ± 13.9 at 100 % vs baseline
Increase in C7 levels Emax, % vs baseline ([4]; at 100 µM): 10± 13 at 100 % vs baseline
IC50 [5]: 31 ± 4.1 µM
